Calls of active or inactive are those of the source. No cut-off for these calls is given here.
Assays:
A549 [1] = test: Induction of apoptosis in human A549 cells assessed as late apoptotic cells at 0.5 uM after 24 hrs by annexin V-FITC/propidium iodide staining-based flow cytometric analysis (reference value: 0.65%); type: functional
Tubulin (Homo sapiens) = Tubulin (Homo sapiens) (UniProt P68371+Q9H4B7+P0DPH7+P68366+Q13509+Q71U36+P04350+Q3ZCM7+P07437+P68363+Q9BQE3+Q6PEY2+Q13885+Q9BVA1+Q9BUF5); test: Binding affinity to tubulin in human A549 cells assessed as inhibition of microtubule network formation at 1 uM after 12 to 36 hrs by indirect immunofluorescence assay; type: cell-based
A549 [2] = test: Induction of apoptosis in human A549 cells assessed as dead cells at 5 uM after 24 hrs by annexin V-FITC/propidium iodide staining-based flow cytometric analysis (reference value: 0.69%); type: functional
A549 [3] = test: Induction of apoptosis in human A549 cells assessed as nuclear fragmentation at 0.5 to 1 uM after 48 hrs by Hoechst 33258 staining-based phase contrast microscopic analysis; type: functional, cell-based
HUVEC = test: Antiangiogenic activity in HUVEC assessed as inhibition of VEGF-induced tube formation at 0.5 to 1 uM after 12 hrs by phase contrast inverted microscopic analysis; type: functional, cell-based; details: Homo sapiens
A549 [4] = test: Upregulation of cdc-2 protein expression in human A549 cells by Western blot analysis; type: functional, cell-based; details: TDE = time-dependent effect
A549 [5] = test: Downregulation of phosphorylated cdc-2 protein expression in human A549 cells by Western blot analysis; type: functional, cell-based; details: TDE = time-dependent effect
A549 [6] = test: Induction of apoptosis in human A549 cells assessed as early apoptotic cells at 0.5 uM after 24 hrs by annexin V-FITC/propidium iodide staining-based flow cytometric analysis (reference value: 0.18%); type: functional
A549 [7] = test: Induction of apoptosis in human A549 cells at 0.5 to 5 uM by annexin V-FITC/propidium iodide staining-based flow cytometric analysis; type: functional, cell-based; details: TDE = time-dependent effect
A549 [8] = test: Induction of apoptosis in human A549 cells at 0.5 to 1 uM by Hoechst 33258 staining-based phase contrast microscopic analysis; type: functional, cell-based; details: TDE = time-dependent effect
A549 [9] = test: Induction of apoptosis in human A549 cells assessed as increase in Bax protein expression at 1 uM after 24 hrs by immunofluorescence assay; type: functional, cell-based
A549 [10] = test: Induction of apoptosis in human A549 cells after 48 hrs by Hoechst 33258 staining-based phase contrast microscopic analysis; type: functional, cell-based
A549 [11] = test: Induction of apoptosis in human A549 cells assessed as late apoptotic cells at 1 uM after 24 hrs by annexin V-FITC/propidium iodide staining-based flow cytometric analysis (reference value: 0.65%); type: functional
A549 [12] = test: Induction of apoptosis in human A549 cells assessed as increase in cleaved caspase-3 protein expression at 1 uM after 24 hrs by immunofluorescence assay; type: functional, cell-based
A549 [13] = test: Induction of apoptosis in human A549 cells assessed as cell shrinkage at 0.5 to 1 uM after 48 hrs by Hoechst 33258 staining-based phase contrast microscopic analysis; type: functional
[14] = Cytotoxicity activity human MSC assessed as cell viability at 0.01 to 1 uM after 48 hrs by MTT assay
A549 [15] = test: Cytotoxicity against human A549 cells assessed as cell viability after 48 hrs by MTT assay; type: functional, cell-based
A549 [16] = test: Induction of apoptosis in human A549 cells assessed as nuclear condensation dispersed throughout cytoplasm at 1 uM after 36 hrs by DAPI staining-based indirect immunofluorescence assay; type: functional, cell-based
A549 [17] = test: Induction of apoptosis in human A549 cells assessed as early apoptotic cells at 1 uM after 24 hrs by annexin V-FITC/propidium iodide staining-based flow cytometric analysis (reference value: 0.18%); type: functional
A549 [18] = test: Induction of ROS generation in human A549 cells after 24 hrs by DCFH-DA dye-based laser confocal microscopic analysis; type: functional, cell-based
A549 [19] = test: Induction of apoptosis in human A549 cells assessed as nuclear condensation at 0.5 to 1 uM after 48 hrs by Hoechst 33258 staining-based phase contrast microscopic analysis; type: functional, cell-based
A549 [20] = test: Induction of apoptosis in human A549 cells assessed as early apoptotic cells at 5 uM after 24 hrs by annexin V-FITC/propidium iodide staining-based flow cytometric analysis (reference value: 0.18%); type: functional
A549 [21] = test: Cytotoxicity against human A549 cells assessed as cell viability at 0.2 to 1 uM by MTT assay; type: functional, cell-based; details: TDE = time-dependent effect
A549 [22] = test: Induction of apoptosis in human A549 cells assessed as increase in apoptotic cells after 24 hrs by annexin V-FITC/propidium iodide staining-based flow cytometric analysis; type: functional, cell-based
A549 [23] = test: Induction of apoptosis in human A549 cells assessed as dead cells at 1 uM after 24 hrs by annexin V-FITC/propidium iodide staining-based flow cytometric analysis (reference value: 0.69%); type: functional
A549 [24] = test: Induction of apoptosis in human A549 cells assessed as late apoptotic cells at 5 uM after 24 hrs by annexin V-FITC/propidium iodide staining-based flow cytometric analysis (reference value: 0.65%); type: functional
A549 [25] = test: Upregulation of p53 protein expression in human A549 cells by Western blot analysis; type: functional, cell-based; details: TDE = time-dependent effect
A549 [26] = test: Induction of apoptosis in human A549 cells assessed as dead cells at 0.5 uM after 24 hrs by annexin V-FITC/propidium iodide staining-based flow cytometric analysis (reference value: 0.69%); type: functional
A549 [27] = test: Induction of apoptosis in human A549 cells assessed as inhibition of Bcl-2 protein expression at 1 uM after 24 hrs by immunofluorescence assay; type: functional, cell-based
A549 [28] = test: Induction of apoptosis in human A549 cells assessed as nuclear fragmentation dispersed throughout cytoplasm at 1 uM after 36 hrs by DAPI staining-based indirect immunofluorescence assay; type: functional, cell-based
A549 [29] = test: Induction of apoptosis in human A549 cells assessed as cell shrinkage at 1 uM after 36 hrs by DAPI staining-based indirect immunofluorescence assay; type: functional
A549 [30] = test: Upregulation of cyclin B1 protein expression in human A549 cells by Western blot analysis; type: functional, cell-based; details: TDE = time-dependent effect

COc1cc([C@@H]2c3cc4c(cc3C[C@H]3COC(=O)[C@@H]32)OCO4)cc(OC)c1OC(=O)N[C@H](CCSC)C(N)=O
Activity (A549 [1]): 6.11%
inhibition (Tubulin (Homo sapiens)): Active
Activity (A549 [2]): 23.43%
Activity (A549 [3]): Active
inhibition (HUVEC): Active
Activity (A549 [4]): tde
Activity (A549 [5]): tde
Activity (A549 [6]): 6.22%
Activity (A549 [7]): tde
Activity (A549 [8]): tde
Activity (A549 [9]): Active
Activity (A549 [10]): Dose-dependent effect
Activity (A549 [11]): 13.83%
Activity (A549 [12]): Active
Activity (A549 [13]): Active
Activity [14]: Non-toxic
Activity (A549 [15]): Dose-dependent effect
Activity (A549 [16]): Active
Activity (A549 [17]): 9.28%
Activity (A549 [18]): Dose-dependent effect
Activity (A549 [19]): Active
Activity (A549 [20]): 18.41%
Activity (A549 [21]): tde
Activity (A549 [22]): Dose-dependent effect
Activity (A549 [23]): 15.73%
Activity (A549 [24]): 27.54%
Activity (A549 [25]): tde
Activity (A549 [26]): 2.76%
inhibition (A549 [27]): Active
Activity (A549 [28]): Active
Activity (A549 [29]): Active
Activity (A549 [30]): tde
